Results taken from the supplement of paper PMC10307832.

How the values were obtained:
Assay in all cases: relative viability (nuclei count vs DMSO), 5 days (fraction); higher = more cells survive
Omipalisib + Pemetrexed = compound: COc1ncc(-c2ccc3nccc(-c4ccnnc4)c3c2)cc1NS(=O)(=O)c1ccc(F)cc1F [Omipalisib] + Nc1nc2[nH]cc(CCc3ccc(C(=O)N[C@@H](CCC(=O)O)C(=O)O)cc3)c2c(=O)[nH]1 [Pemetrexed] (partner 0.2 µM)
In short: (§1)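 Dosing by pin tool came one day after lung cancer cell lines were seeded in 1536-well plates, using either one drug or a fixed anchor-drug dose plus five library-drug doses (not always all listed) in √10 steps. After 5 days, nuclei were counted on 4× images. Relative viability is treated-well nuclei count divided by vehicle-well nuclei count, and values are medians of duplicate plates.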

Omipalisib + OSI-027 = compound: COc1ncc(-c2ccc3nccc(-c4ccnnc4)c3c2)cc1NS(=O)(=O)c1ccc(F)cc1F [Omipalisib] + COc1cccc2cc(-c3nc([C@H]4CC[C@H](C(=O)O)CC4)n4ncnc(N)c34)[nH]c12 [OSI-027] (partner 0.5 µM)
In short: as §1

Omipalisib + Bortezomib = compound: COc1ncc(-c2ccc3nccc(-c4ccnnc4)c3c2)cc1NS(=O)(=O)c1ccc(F)cc1F [Omipalisib] + CC(C)C[C@H](NC(=O)[C@H](Cc1ccccc1)NC(=O)c1cnccn1)B(O)O [Bortezomib] (partner 0.002 µM)
In short: as §1

Omipalisib + Decitabine = compound: COc1ncc(-c2ccc3nccc(-c4ccnnc4)c3c2)cc1NS(=O)(=O)c1ccc(F)cc1F [Omipalisib] + Nc1ncn([C@H]2C[C@H](O)[C@@H](CO)O2)c(=O)n1 [Decitabine] (partner 2 µM)
In short: as §1

Omipalisib + Foretinib = compound: COc1ncc(-c2ccc3nccc(-c4ccnnc4)c3c2)cc1NS(=O)(=O)c1ccc(F)cc1F [Omipalisib] + COc1cc2c(Oc3ccc(NC(=O)C4(C(=O)Nc5ccc(F)cc5)CC4)cc3F)ccnc2cc1OCCCN1CCOCC1 [Foretinib] (partner 0.25 µM)
In short: as §1

Omipalisib + Tozasertib = compound: COc1ncc(-c2ccc3nccc(-c4ccnnc4)c3c2)cc1NS(=O)(=O)c1ccc(F)cc1F [Omipalisib] + Cc1cc(Nc2cc(N3CCN(C)CC3)nc(Sc3ccc(NC(=O)C4CC4)cc3)n2)n[nH]1 [Tozasertib] (partner 0.1 µM)
In short: as §1

Cell Line	relative viability (Omipalisib + Pemetrexed; first compound 0.0003 µM)	relative viability (Omipalisib + Pemetrexed; first compound 0.003 µM)	relative viability (Omipalisib + Pemetrexed; first compound 0.03 µM)	relative viability (Omipalisib + OSI-027; first compound 0.0003 µM)	relative viability (Omipalisib + OSI-027; first compound 0.003 µM)	relative viability (Omipalisib + OSI-027; first compound 0.03 µM)	relative viability (Omipalisib + Bortezomib; first compound 0.0003 µM)	relative viability (Omipalisib + Bortezomib; first compound 0.003 µM)	relative viability (Omipalisib + Bortezomib; first compound 0.03 µM)	relative viability (Omipalisib + Decitabine; first compound 0.0003 µM)	relative viability (Omipalisib + Decitabine; first compound 0.003 µM)	relative viability (Omipalisib + Decitabine; first compound 0.03 µM)	relative viability (Omipalisib + Foretinib; first compound 0.0003 µM)	relative viability (Omipalisib + Foretinib; first compound 0.003 µM)	relative viability (Omipalisib + Foretinib; first compound 0.03 µM)	relative viability (Omipalisib + Tozasertib; first compound 0.0003 µM)	relative viability (Omipalisib + Tozasertib; first compound 0.003 µM)	relative viability (Omipalisib + Tozasertib; first compound 0.03 µM)
PC-14	0.151	0.155	0.161	0.761	0.529	0.435	0.822	0.991	0.646	0.19	0.248	0.222	0.904	0.961	0.967	0.672	0.674	0.411
NCI-H2228	0.351	0.306	0.221	0.506	0.19	0.139	0.905	0.577	0.404				0.957	0.74	0.25	0.343	0.171	0.126
HCC-44	0.68	0.682	0.694	0.524	0.344	0.338	0.874	0.694	0.513	0.95	0.914	0.787				1.03	0.953	0.234
NCI-H727				0.596	0.439	0.393	0.841	0.591	0.511	0.778	0.712	0.755	0.937	0.609	0.421	0.666	0.623	0.378
NCI-H520	0.58	0.433	0.184	0.235	0.214	0.203	0.465	0.254	0.171	0.51	0.369	0.233	0.742	0.441	0.226	0.319	0.308	0.235
NCI-H2347	0.45	0.484	0.445	0.345	0.262	0.959	1.02	1.06	0.663	0.538	0.523	0.464	0.905	0.699	0.454	0.66	0.378	0.211
NCI-H647	0.189	0.158	0.183	0.547	0.408	0.264	1.05	0.739	0.462	0.34	0.248	0.378	1.16	0.965	0.603	0.33	0.158	0.0783
NCI-H2342	0.69	0.568	0.451	0.569	0.516	0.467				0.589	0.479	0.408	0.816	0.688	0.453	0.425	0.442	0.354
LXF-289	0.938	1.05	0.804	0.764	0.493	0.357	1.03	0.99	0.808	0.365	0.371	0.281	0.977	0.912	0.626	0.21	0.0991	0.0753
SW 900	0.508	0.456	0.487	0.573	0.495	0.306				0.386	0.344	0.392	0.888	0.691	0.622	0.556	0.562	0.423
COR-L23	0.2	0.2	0.197	0.786	0.59	0.483	1	0.934	0.63	0.433	0.355	0.296	0.974	1.01	0.719	0.209	0.21	0.159
NCI-H1915	0.545	0.534	0.509	0.618	0.473	0.574	1.02	0.978	0.97	0.248	0.249	0.227	1.05	1.08	0.983	0.44	0.395	0.421
NCI-H1437	0.276	0.298	0.27	0.854	0.639	0.323	0.463	0.465	0.227	0.519	0.564	0.398	1.26	1.35	0.918	0.422	0.348	0.244
CAL-12T	1.17	1.15	0.721	0.753	0.404	0.232	1.15	1.06	0.484				1.26	1.06	0.684	0.306	0.28	0.151
NCI-H1651	0.55	0.506	0.433	0.55	0.632	0.482	0.872	0.86	0.747	0.528	0.476	0.446	0.664	0.497	0.489	0.711	0.384	0.539
NCI-H1792	0.835	0.319	0.103	0.653	0.404	0.224	0.872	0.927	0.398	0.428	0.37	0.101						
COR-L 105	0.995	1.11	0.942	0.767	0.549	0.328	0.89	0.656	0.411	0.593	0.589	0.556	1.17	1.01	0.896	0.356	0.359	0.316
NCI-H596	0.497	0.586	0.407	0.726	0.352	0.309	1.04	0.691	0.386	0.846	0.75	0.506	0.559	0.485	0.304	0.824	0.598	0.287

Cell Line	relative viability (Omipalisib + Pemetrexed; first compound 0.0003 µM)	relative viability (Omipalisib + Pemetrexed; first compound 0.003 µM)	relative viability (Omipalisib + Pemetrexed; first compound 0.03 µM)	relative viability (Omipalisib + OSI-027; first compound 0.0003 µM)	relative viability (Omipalisib + OSI-027; first compound 0.003 µM)	relative viability (Omipalisib + OSI-027; first compound 0.03 µM)	relative viability (Omipalisib + Bortezomib; first compound 0.0003 µM)	relative viability (Omipalisib + Bortezomib; first compound 0.003 µM)	relative viability (Omipalisib + Bortezomib; first compound 0.03 µM)	relative viability (Omipalisib + Decitabine; first compound 0.0003 µM)	relative viability (Omipalisib + Decitabine; first compound 0.003 µM)	relative viability (Omipalisib + Decitabine; first compound 0.03 µM)	relative viability (Omipalisib + Foretinib; first compound 0.0003 µM)	relative viability (Omipalisib + Foretinib; first compound 0.003 µM)	relative viability (Omipalisib + Foretinib; first compound 0.03 µM)	relative viability (Omipalisib + Tozasertib; first compound 0.0003 µM)	relative viability (Omipalisib + Tozasertib; first compound 0.003 µM)	relative viability (Omipalisib + Tozasertib; first compound 0.03 µM)
NCI-H2170	0.26	0.262	0.253	0.656	0.475	0.485				0.446	0.339	0.29	0.945	0.565	0.565	0.607	0.482	0.354
SK-LU-1	1.04	0.834	0.751	0.373	0.207	0.183	1.1	0.724	0.511	0.633	0.548	0.494	0.869	0.662	0.479	0.339	0.301	0.237
NCI-H650	0.903	0.634	0.453	0.447	0.384	0.315	0.749	0.501	0.293	0.375	0.257	0.321	1.04	0.877	0.613	0.665	0.608	0.396
LOU-NH91	0.408	0.431	0.448	0.705	0.58	0.503	0.543	0.517	0.453	0.857	0.747	0.665	0.901	0.838	0.564	0.706	0.621	0.441
LK-2	0.253	0.211	0.16	0.212	0.13	0.173				0.235	0.201	0.147	0.832	0.553	0.484	0.17	0.166	0.183
LC-2-ad	0.279	0.26	0.275	0.732	0.501	0.439	1.11	0.978	0.888	0.812	0.739	0.63	0.961	0.743	0.411	0.349	0.401	0.289
NCI-H2085	0.986	0.855	0.406	0.776	0.349	0.315	0.953	0.98	0.517	0.524	0.507	0.348	0.95	0.884	0.26	0.905	0.693	0.361
H3255	0.576	0.577	0.469	0.546	0.45	0.299	0.803	0.588	0.571	0.534	0.471	0.305	0.731	0.669	0.494	0.554	0.556	0.286
UMC-11	0.717	0.63	0.648	0.376	0.349	0.48	0.678	0.556	0.643	0.491	0.397	0.527	1.04	0.803	0.795	0.217	0.209	0.22
NCI-H1395	0.737	0.657	0.602	0.608	0.458	0.527				0.661	0.625	0.567	0.916	0.886	0.586	0.743	0.764	0.506
NCI-H1993	0.529	0.478	0.513	0.48	0.597	0.621	0.894	0.699	0.542	0.6	0.483	0.447	0.805	0.633	0.594	0.575	0.5	0.499
EPLC-272H	0.34	0.39	0.235	0.286	0.29	0.217	1.08	0.732	0.611	0.346	0.269	0.172	0.574	0.388	0.196	0.254	0.186	0.165
NCI-H1975	0.35	0.3	0.22	0.772	0.415	0.159	0.33	0.27	0.179	0.398	0.296	0.178	0.991	0.672	0.287	0.786	0.502	0.23
NCI-H358	0.182	0.164	0.131	0.595	0.473	0.16				0.199	0.174	0.141	0.626	0.591	0.371	0.126	0.108	0.0977
ABC-1				0.518	0.382	0.283	0.324	0.299	0.246	1.05	0.99	0.742	1.05	0.824	0.561	0.161	0.189	0.213
SK-MES-1	0.994	0.744	0.376	0.508	0.252	0.29				0.363	0.262	0.241	0.73	0.461	0.344	0.901	0.875	0.53
NCI-H1944	0.626	0.471	0.324	0.396	0.256	0.201				0.384	0.356	0.239	0.811	0.457	0.31	0.237	0.217	0.192
NCI-H1793	0.696	0.463	0.24	0.261	0.183	0.168				0.398	0.282	0.214	0.559	0.399	0.244	0.287	0.209	0.113
